Laboratory results taken from patent publication US8247211B2, “Glycopeptide antibiotics” (American Cyanamid Company, priority 2001, dated 2012).
Values after ≈ are worked out from the molar mass of the structure shown.

How the values were obtained:
[1] = test system: Enterococcus sp.; assay: In vitro antibacterial evaluation: minimum inhibitory concentration (MIC), broth dilution method; type: cell-based; conditions: broth dilution, 5×10^5 CFU/mL, 18 hours at 35° C.
How it was run: (§1)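 Susceptibility determined by NCCLS-recommended broth dilution (M7-A2), Muller-Hinton II […]. Concentration span 64-0.06 μg/mL, inoculum 5×10^5 CFU/mL. Isolates include strains resistant to methicillin, penicillin and/or vancomycin.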

[2] = test system: Streptococcus sp.; assay: as above; type: cell-based; conditions: broth dilution, 5×10^5 CFU/mL, 18 hours at 35° C.
How it was run: as §1

[3] = test system: Escherichia coli; assay: as above; type: cell-based; conditions: 5×10^5 CFU/mL, 18 hours at 35° C.
How it was run: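 Values are minimum inhibitory concentrations, meaning the smallest antibiotic concentration that stops growth of the organism. They come from broth dilution in Muller-Hinton II […] per NCCLS guidance (M7-A2), using 5×10^5 CFU/mL and concentrations from 64 to 0.06 μg/mL.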

[4] = test system: Staphylococcus sp.; assay: as above; type: cell-based; conditions: for MIC Staphylococcus aureus (ATCC 29213): strain ATCC 29213; for MIC Staphylococcus aureus (GC 1131): strain GC 1131; for MIC Staphylococcus aureus (GC 3051): strain GC 3051; for MIC Staphylococcus aureus (GC 3053): strain GC 3053; for MIC Staphylococcus aureus (GC 4541): strain GC 4541; for MIC Staphylococcus aureus (GC 4542): strain GC 4542; for MIC Staphylococcus aureus-SMITH (GC 4543): strain GC 4543; for MIC Staphylococcus aureus (GC 4544): strain GC 4544; for MIC Staphylococcus aureus (GC 4545): strain GC 4545; for MIC Staphylococcus haemolyticus (GC 4546): strain GC 4546; for MIC Coagulase Negative Staphylococcus (GC 4547): strain GC 4547; for MIC Coagulase Negative Staphylococcus (GC 4548): strain GC 4548; for MIC Coagulase Negative Staphylococcus (GC 4549): strain GC 4549; for MIC Coagulase Negative Staphylococcus (GC 4551): strain GC 4551; for MIC Coagulase Negative Staphylococcus (GC 6257): strain GC 6257
How it was run: as §1

[5] = test system: Staphylococcus aureus-SMITH (GC 4543); assay: Acute lethal infection in mice (ED50); type: in vivo; conditions: female CD-1 mice, intraperitoneal challenge, intravenous dose 30 min. after infection, 7 day survival ratios
Experimental: The therapeutic effects of glycopeptide antibiotics of Formula I are determined against acute lethal infections with S. aureus (strain Smith), a penicillin resistant strain of S. pneumoniae (strain GC 1894), and a vancomycin resistant strain of E. fecalis (strain GC 6189 and GC 2246). Female mice, CD-1 (Charles River Laboratories), 20 +1-2 gm, are challenged by intraperitoneal injection of sufficient bacteria (suspended in Trypticase Soy Broth or hog gastric mucin) to kill non-treated controls within 24-48 hr. Antibacterial agents, contained in 0.2 mL of saline or 5% dextrose solution, are administered intravenously 30 min. after infection. Five mice are treated at each dose level. The 7 day survival ratios from 3 separate tests are pooled for calculation of median effective dose (ED50).

[6] = broth dilution, 18 hours at 35° C.

## CC(c1ccccc1)C1NC(=O)CNC(=O)C(CO)NC(=O)C(C(O)C2CNC(=N)N2C2OC(CO)C(O)C(O)C2O)NC(=O)C(C(O)C2CNC(=N)N2)NC(=O)C(Cc2ccc(OC3OC(CO)C(OC4OC5COC(CC6CCN(C(=O)OCc7ccccc7)CC6)OC5C(O)C4O)C(O)C3O)cc2)NC1=O (stereo not drawn) [Example 113]
[1]
  MIC Enterococccus avium (GC 4558): 2 µg/mL (≈ 1.3 µM)
  MIC Enterococccus faecalis (ATCC 29212): 2 µg/mL (≈ 1.3 µM)
  MIC Enterococccus faecalis (GC 2691): 4 µg/mL (≈ 2.6 µM)
  MIC Enterococccus faecalis (GC 3059): 2 µg/mL (≈ 1.3 µM)
  MIC Enterococccus faecalis (GC 4552): 2 µg/mL (≈ 1.3 µM)
  MIC Enterococccus faecalis (GC 4553): 2 µg/mL (≈ 1.3 µM)
  MIC Enterococccus faecalis (GC 4554): 2 µg/mL (≈ 1.3 µM)
  MIC Enterococccus faecalis (GC 6189): 2 µg/mL (≈ 1.3 µM)
  MIC Enterococccus faecium (GC 2243): 2 µg/mL (≈ 1.3 µM)
  MIC Enterococccus faecium (GC 4556): 2 µg/mL (≈ 1.3 µM)
  MIC Enterococccus faecium (GC 4557): 2 µg/mL (≈ 1.3 µM)
  MIC Enterococcus faecalis (GC 2242): 4 µg/mL (≈ 2.6 µM)
[2]
  MIC Streptococcus agalactiae (GC 4564): 0.12 µg/mL (≈ 0.078 µM)
  MIC Streptococcus pneumoniae (GC 1894): <0.06 µg/mL
  MIC Streptococcus pneumoniae (GC 4565): <0.06 µg/mL
  MIC Streptococcus pneumonine (ATCC 6301): <0.06 µg/mL
  MIC Streptococcus pyogenes (GC 4563): <0.06 µg/mL
[3]
  MIC Escherichia coli (ATCC 25922): 32 µg/mL (≈ 20.8 µM)
  MIC Escherichia coli (GC 4559): 32 µg/mL (≈ 20.8 µM)
  MIC Escherichia coli (GC 4560): 1 µg/mL (≈ 0.65 µM)
[4]
  MIC Staphylococcus aureus (ATCC 29213): 1 µg/mL (≈ 0.65 µM)
  MIC Staphylococcus aureus (GC 1131): 2 µg/mL (≈ 1.3 µM)
  MIC Staphylococcus aureus (GC 3051): 1 µg/mL (≈ 0.65 µM)
  MIC Staphylococcus aureus (GC 3053): 1 µg/mL (≈ 0.65 µM)
  MIC Staphylococcus aureus (GC 4541): 1 µg/mL (≈ 0.65 µM)
  MIC Staphylococcus aureus (GC 4542): 1 µg/mL (≈ 0.65 µM)
  MIC Staphylococcus aureus (GC 4544): 2 µg/mL (≈ 1.3 µM)
  MIC Staphylococcus aureus (GC 4545): 1 µg/mL (≈ 0.65 µM)
  MIC Staphylococcus haemolyticus (GC 4546): 1 µg/mL (≈ 0.65 µM)
  MIC Coagulase Negative Staphylococcus (GC 4547): 1 µg/mL (≈ 0.65 µM)
  MIC Coagulase Negative Staphylococcus (GC 4548): 0.5 µg/mL (≈ 0.325 µM)
  MIC Coagulase Negative Staphylococcus (GC 4549): 1 µg/mL (≈ 0.65 µM)
  MIC Coagulase Negative Staphylococcus (GC 4551): 1 µg/mL (≈ 0.65 µM)
  MIC Coagulase Negative Staphylococcus (GC 6257): 0.5 µg/mL (≈ 0.325 µM)
[4]; [6]
  MIC Staphylococcus aureus (ATCC 29213): 1 µg/mL (≈ 0.65 µM)
  MIC Staphylococcus aureus (GC 1131): 2 µg/mL (≈ 1.3 µM)
  MIC Staphylococcus aureus (GC 3051): 1 µg/mL (≈ 0.65 µM)
  MIC Staphylococcus aureus (GC 3053): 1 µg/mL (≈ 0.65 µM)
  MIC Staphylococcus aureus (GC 4541): 1 µg/mL (≈ 0.65 µM)
  MIC Staphylococcus aureus (GC 4542): 1 µg/mL (≈ 0.65 µM)
  MIC Staphylococcus aureus-SMITH (GC 4543): 1 µg/mL (≈ 0.65 µM)
  MIC Staphylococcus aureus (GC 4544): 2 µg/mL (≈ 1.3 µM)
  MIC Staphylococcus aureus (GC 4545): 1 µg/mL (≈ 0.65 µM)
  MIC Staphylococcus haemolyticus (GC 4546): 1 µg/mL (≈ 0.65 µM)
  MIC Coagulase Negative Staphylococcus (GC 4547): 1 µg/mL (≈ 0.65 µM)
  MIC Coagulase Negative Staphylococcus (GC 4548): 0.5 µg/mL (≈ 0.325 µM)
  MIC Coagulase Negative Staphylococcus (GC 4549): 1 µg/mL (≈ 0.65 µM)
  MIC Coagulase Negative Staphylococcus (GC 4551): 1 µg/mL (≈ 0.65 µM)
  MIC Coagulase Negative Staphylococcus (GC 6257): 0.5 µg/mL (≈ 0.325 µM)
[4]; 18 hours at 35° C.
  MIC Staphylococcus aureus-SMITH (GC 4543): 1 µg/mL (≈ 0.65 µM)
[5]
  median effective dose (ED50), Staphylococcus aureus-SMITH (GC 4543): 0.26 mg/kg

## CC(c1ccccc1)C1NC(=O)CNC(=O)C(CO)NC(=O)C(C(O)C2CNC(=N)N2C2OC(CO)C(O)C(O)C2O)NC(=O)C(C(O)C2CNC(=N)N2)NC(=O)C(Cc2ccc(OC3OC(CO)C(OC4OC5COC(Cc6ccc(Cl)cc6)OC5C(O)C4O)C(O)C3O)cc2)NC1=O (stereo not drawn) [Example 120, Cyclo[glycyl-β-methylphenylalanyl-O-[4-O-[4,6-O-(4-chlorophenethylidene)hexopyranosyl]-hexopyranosyl]tyrosyl-3-(2-iminoimidazolidin-4-yl)seryl-3-(3-hexopyranosyl-2-iminoimidazolidin-4-yl)serylseryl]]
[1]
  MIC Enterococccus avium (GC 4558): 1 µg/mL (≈ 0.698 µM)
  MIC Enterococccus faecalis (ATCC 29212): 1 µg/mL (≈ 0.698 µM)
  MIC Enterococccus faecalis (GC 2691): 1 µg/mL (≈ 0.698 µM)
  MIC Enterococccus faecalis (GC 3059): 1 µg/mL (≈ 0.698 µM)
  MIC Enterococccus faecalis (GC 4552): 1 µg/mL (≈ 0.698 µM)
  MIC Enterococccus faecalis (GC 4553): 1 µg/mL (≈ 0.698 µM)
  MIC Enterococccus faecalis (GC 4554): 1 µg/mL (≈ 0.698 µM)
  MIC Enterococccus faecalis (GC 6189): 1 µg/mL (≈ 0.698 µM)
  MIC Enterococccus faecium (GC 2243): 1 µg/mL (≈ 0.698 µM)
  MIC Enterococccus faecium (GC 4556): 1 µg/mL (≈ 0.698 µM)
  MIC Enterococccus faecium (GC 4557): 1 µg/mL (≈ 0.698 µM)
  MIC Enterococcus faecalis (GC 2242): 1 µg/mL (≈ 0.698 µM)
[2]
  MIC Streptococcus agalactiae (GC 4564): <0.5 µg/mL
  MIC Streptococcus pneumoniae (GC 1894): <0.5 µg/mL
  MIC Streptococcus pneumoniae (GC 4565): <0.5 µg/mL
  MIC Streptococcus pneumonine (ATCC 6301): <0.5 µg/mL
  MIC Streptococcus pyogenes (GC 4563): <0.5 µg/mL
[3]
  MIC Escherichia coli (ATCC 25922): 16 µg/mL (≈ 11.2 µM)
  MIC Escherichia coli (GC 4559): 16 µg/mL (≈ 11.2 µM)
  MIC Escherichia coli (GC 4560): <0.5 µg/mL
[4]
  MIC Staphylococcus aureus (ATCC 29213): <0.5 µg/mL
  MIC Staphylococcus aureus (GC 1131): <0.5 µg/mL
  MIC Staphylococcus aureus (GC 3051): <0.5 µg/mL
  MIC Staphylococcus aureus (GC 3053): 1 µg/mL (≈ 0.698 µM)
  MIC Staphylococcus aureus (GC 4541): <0.5 µg/mL
  MIC Staphylococcus aureus (GC 4542): <0.5 µg/mL
  MIC Staphylococcus aureus (GC 4544): <0.5 µg/mL
  MIC Staphylococcus aureus (GC 4545): <0.5 µg/mL
  MIC Staphylococcus haemolyticus (GC 4546): <0.5 µg/mL
  MIC Coagulase Negative Staphylococcus (GC 4547): 1 µg/mL (≈ 0.698 µM)
  MIC Coagulase Negative Staphylococcus (GC 4548): <0.5 µg/mL
  MIC Coagulase Negative Staphylococcus (GC 4549): <0.5 µg/mL
  MIC Coagulase Negative Staphylococcus (GC 4551): <0.5 µg/mL
  MIC Coagulase Negative Staphylococcus (GC 6257): <0.5 µg/mL
[4]; [6]
  MIC Staphylococcus aureus (ATCC 29213): <0.5 µg/mL
  MIC Staphylococcus aureus (GC 1131): <0.5 µg/mL
  MIC Staphylococcus aureus (GC 3051): <0.5 µg/mL
  MIC Staphylococcus aureus (GC 3053): 1 µg/mL (≈ 0.698 µM)
  MIC Staphylococcus aureus (GC 4541): <0.5 µg/mL
  MIC Staphylococcus aureus (GC 4542): <0.5 µg/mL
  MIC Staphylococcus aureus-SMITH (GC 4543): <0.5 µg/mL
  MIC Staphylococcus aureus (GC 4544): <0.5 µg/mL
  MIC Staphylococcus aureus (GC 4545): <0.5 µg/mL
  MIC Staphylococcus haemolyticus (GC 4546): <0.5 µg/mL
  MIC Coagulase Negative Staphylococcus (GC 4547): 1 µg/mL (≈ 0.698 µM)
  MIC Coagulase Negative Staphylococcus (GC 4548): <0.5 µg/mL
  MIC Coagulase Negative Staphylococcus (GC 4549): <0.5 µg/mL
  MIC Coagulase Negative Staphylococcus (GC 4551): <0.5 µg/mL
  MIC Coagulase Negative Staphylococcus (GC 6257): <0.5 µg/mL
[4]; 18 hours at 35° C.
  MIC Staphylococcus aureus-SMITH (GC 4543): <0.5 µg/mL
[5]
  median effective dose (ED50), Staphylococcus aureus-SMITH (GC 4543): 0.06 mg/kg
